Source: US5891917A, “Certain acrylonitrile-sulfonamide derivatives” (Sugen, Inc., priority 1997, dated 1999)
pIC50: −log10 of the molar value. Like-named read-outs stand apart in the source and are kept apart here.

Legend:
Assay type in all cases: cell-based
MCF7/HER2 cells = assay: MCF-7/HER-2 SRB Growth Assay; settings: Homo sapiens, read-out: Growth Data: MC7/HER2 (0.5% FBS)
Excerpt: (§1) The following examples illustrate the ability of the exemplary compounds to inhibit receptor tyrosine kinases, such as HER2 and/or EGFR. The following target cells were used for cellular kinase assays: NIH3T3 clone C7 (Honegger et al., supra) engineered to over-express human EGF receptor; NIH3T3 cells engineered to over-express a chimeric receptor containing the EGFR extracellular domain and the HER2 intracellular kinase domain; the human mammary carcinoma line BT474 (ATCC HTB2) expressing HER2; and the human glioblastoma line U1242 that expresses PDGFR-beta. Growth assays were carried out using human mammary epithelial SKBR3 (ATCC HTB30) cells (SKBR3 cells over-express HER2), SKOV3 (ATCC HTB77) human ovarian cancer cell line (SKOV3 cells also over-express HER2), A431 cells (A431 cells over-express EGFR) MCF7 human breast carcinoma cells, MCF7 cells overexpressing the HER2 kinase (MCF7-HER2), NIH3T3 cells, and NIH3T3 cells overexpressing the HER2 kinase (3T3-HER2.
MCF-7/HER-2 SRB Growth Assay
The protocol is basically the same as that above (for the MCF-7 Growth Assay) except that immediately before the 30 compound is added, the normal growth media is removed and 0.5% FBS/RPMI supplemented with 2 mM Glutamine is added onto the cells. The compound is also prepared in this 0.5% serum media. The plate of cells is incubated for four days and developed as usual.

3T3/HER2 cells = assay: 3T3 Growth Assay (3T3/HER2)
Excerpt: as §1
The 3T3 growth assay was carried out as follows: […]
(1) HER2C7 (engineered to express HER2) and NIH3T3C7 (as the control) cells are used for this assay. NIH3T3C7 cells are seeded at 2500 cells/well, […] in 10% CS+2 mM GLN DMEM, in a 96 well plate; HER2C7 cells are seeded at 6000 cells/well, 100 μl/well in 2% FBS+2 mM GLN DMEM, in a 96 well plate. Cells are incubated at 37° C., 5% CO2 overnight to allow for cell attachment to the plate;
(2) The […] compound is added to the cells at day 2. The compounds are prepared in the appropriate growth medium (10% CS+2 mM) GLN DMEM for NIH3T3C7 cells; 2% FBS+2 mM GLN DMEM for HER2C7 cells) in a 96 well plate, and serially diluted. A total of 100 μl/well medium of the diluted compounds is added into the cells. The total volume of each well is 200 μl. Quadruplicates (wells) and 11 concentration points are applied to each compound tested.
(3) After the cells are treated with the compound for 4 days, the cells are washed with PBS and fixed with 200 μl/well ice-cold 10% TCA for one hour at 0°-5° C. condition.
(4) Remove TCA and rinse wells 5 times with deionized water. Dry plates upside down with paper towels. Stain cells with 0.4% SRB at 100 μl/well for 10 minutes.
(5) Pour off SRB and rinse plate 5 times with 1 % acetic acid. Dry plate completely.
(6) Solubilize the dye with 10 mM Tris-base at 100 μl/well for 10 minutes on a shaker.
(7) Read the plate at dual wavelengths at 570 nm and 630 nm on Dynatech Elisa plate reader.

MCF7 cells = assay: MCF-7 SRB Growth Assay; settings: Homo sapiens, read-out: Growth Data: MCF7 10% FBS
Excerpt: as §1
MCF-7 cells are seeded at 2000 cells/well in a 96-well flat bottom plate in normal growth media, which was 10% FBS/RPMI supplemented with 2 mM Glutamine. The plate of cells is incubated for about 24 hours at […] after which it receives an equal volume of compound dilution per well making the total volume per well 200 μl. The compound is prepared at 2 times the desired highest final concentration and serially diluted in the normal growth media in a 96-well round bottom plate and then transferred to plate of cells. DMSO serves as the vector control up to 0.2% as final concentration. The cells are then incubated at 37° C. in a humidified 5% CO2 incubator.
Four days following dosing of compound, the media is 15 discarded and 200 μ/well of ice-cold 10% TCA (Trichloroacetic Acid) is added to fix cells. After 60 minutes at 4° C., the TCA is discarded and the plate is rinsed 5 times with water. The plate is then air-dried and 100 μl/well of 0.4% SRB (Sulforhodamine B from Sigma) 20 in 1% Acetic Acid is added to stain cells for 10 minutes at room temperature. The SRB is discarded and the plate is rinsed 5 times with 1% Acetic Acid. After the plate is completely dried, 100 μl/well of 10 mM Tris-base is added to solubilize the dye. After 5 to 10 minutes, the plate is read on a Dynatech ELISA Plate Reader at dual wavelengths at 570 nm and 630 nm.

[1] = read-out: Growth Data: 3T3/HER2 2% FBS
[2] = read-out: Growth Data: 3T3/HER2 10% FBS

Row | Compound | pIC50 (MCF7/HER2 cells) | pIC50 (3T3/HER2 cells; [1]) | pIC50 (3T3/HER2 cells; [2]) | pIC50 (MCF7 cells)
1 | CC(C)(C)c1cc(/C=C(\C#N)S(=O)(=O)c2ccc(F)cc2)cc(C(C)(C)C)c1O [Compound 740] | 8.15 | 5.42 | 4.70 | 6.70
2 | Cc1cc(/C=C(\C#N)S(=O)(=O)Cc2cccc(C(F)(F)F)c2)cc(C)c1O [Compound 739] | 4.85 | – | – | 4.46
3 | CC(C)c1cc(/C=C(\C#N)S(=O)(=O)c2cccs2)cc(C(C)C)c1O [Compound 737] | 5.52 | 4.40 | 4.05 | 4.80
4 | CC(C)c1cc(/C=C(\C#N)S(=O)(=O)c2ccccn2)cc(C(C)C)c1O [Compound 747] | 4.59 | < 4.00 | < 4.00 | 4.26
5 | Cc1cc(/C=C(\C#N)S(=O)(=O)c2ccc(F)cc2)cc(C)c1O [Compound 744] | 4.34 | < 4.00 | < 4.00 | < 4.00
6 | CC(C)c1cc(/C=C(\C#N)S(=O)(=O)Cc2cccc(C(F)(F)F)c2)cc(C(C)C)c1O [Compound 736] | 6.00 | 4.74 | 4.26 | 5.10
7 | CC(C)c1cc(/C=C(\C#N)S(=O)(=O)c2ccc(F)cc2)cc(C(C)C)c1O [Compound 741, (E)-3-(3,5-Diisopropyl-4-hydroxyphenyl)-2-(4-fluorophenylsulfonyl)acrylonitrile] | 6.00 | 4.82 | 4.12 | 5.10
8 | N#C/C(=C\c1ccc(O)cc1Cl)S(=O)(=O)NCCCc1ccccc1 [Compound 734] | 5.15 | 4.26 | < 4.00 | 4.25
9 | Cc1cc(/C=C(\C#N)S(=O)(=O)c2ccccc2)cc(C)c1O [Compound 748] | 4.34 | < 4.00 | < 4.00 | < 4.00
10 | CC(C)c1cc(/C=C(\C#N)S(=O)(=O)c2ccccc2)cc(C(C)C)c1O [Compound 731] | 6.00 | 4.92 | 4.15 | 4.92
11 | CC(C)(C)c1cc(/C=C(\C#N)S(=O)(=O)Cc2cccc(C(F)(F)F)c2)cc(C(C)(C)C)c1O [Compound 735] | 6.30 | 5.30 | 4.66 | 6.15
12 | CC(C)(C)c1cc(/C=C(\C#N)S(=O)(=O)c2cccs2)cc(C(C)(C)C)c1O [Compound 742] | 6.70 | 5.15 | 4.42 | 5.70
13 | N#C/C(=C\c1ccc(O)cc1Cl)S(=O)(=O)NCc1ccccc1 [Compound 733] | 4.80 | 4.22 | < 4.00 | 4.19
14 | CC(C)(C)c1cc(/C=C(\C#N)S(=O)(=O)c2ccsc2)cc(C(C)(C)C)c1O [Compound 746] | 6.52 | 5.15 | 4.40 | 5.70
15 | CC(C)c1cc(/C=C(\C#N)S(=O)(=O)c2ccsc2)cc(C(C)C)c1O [Compound 738] | 5.52 | 4.35 | < 4.00 | 4.77
16 | CC(C)c1cc(/C=C(\C#N)S(=O)(=O)NCc2ccccc2)cc(C(C)C)c1O [Compound 732] | 5.60 | 4.82 | 4.02 | 4.89
